From publication PMC6222997, “Cloning, purification, and characterization of an organic solvent-tolerant chitinase, MtCh509, from Microbulbifer thermotolerans DAU221” (Biotechnology for Biofuels, 2018) come the findings set out here.

The target of this assay is T1, MtCh509 (Microbulbifer thermotolerans, UniProt A0A143HNF3).
T1 construct: gene A3224_11035; full-length precursor 509 aa; cloned without signal peptide, N-terminal His6 (pCold I), E. coli BL21(DE3); ~60 kDa; GH18 catalytic domain plus ChtBD3
T1 sequence (A0A143HNF3 entry or part of it): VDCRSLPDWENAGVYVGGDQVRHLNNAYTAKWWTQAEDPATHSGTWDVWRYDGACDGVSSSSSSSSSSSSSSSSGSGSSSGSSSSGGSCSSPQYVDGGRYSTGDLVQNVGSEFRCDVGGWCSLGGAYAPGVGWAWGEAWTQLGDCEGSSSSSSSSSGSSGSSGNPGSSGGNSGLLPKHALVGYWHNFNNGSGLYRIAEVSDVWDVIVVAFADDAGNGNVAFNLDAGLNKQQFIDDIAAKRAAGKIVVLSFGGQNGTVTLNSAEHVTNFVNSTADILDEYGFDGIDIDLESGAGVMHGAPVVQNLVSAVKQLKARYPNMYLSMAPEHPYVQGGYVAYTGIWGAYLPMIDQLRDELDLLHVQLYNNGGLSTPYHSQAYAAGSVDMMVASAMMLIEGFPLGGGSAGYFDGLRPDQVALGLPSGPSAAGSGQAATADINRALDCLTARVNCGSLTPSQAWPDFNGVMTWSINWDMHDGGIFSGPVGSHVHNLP
The assay can be described thus: TLC of hydrolysis products. The format is biochemical. Conditions: 50 mM citrate buffer pH 5.0, 55 °C; 0.3 μg enzyme.

Take `CC(=O)N[C@H]1[C@H](O[C@H]2[C@H](O)[C@@H](NC(C)=O)[C@H](O[C@H]3[C@H](O)[C@@H](NC(C)=O)C(O)O[C@@H]3CO)O[C@@H]2CO)O[C@H](CO)[C@@H](O[C@@H]2O[C@H](CO)[C@@H](O[C@@H]3O[C@H](CO)[C@@H](O[C@@H]4O[C@H](CO)[C@@H](O)[C@H](O)[C@H]4NC(C)=O)[C@H](O)[C@H]3NC(C)=O)[C@H](O)[C@H]2NC(C)=O)[C@@H]1O` (stereo partly shown) [NAG6]: the “TLC of hydrolysis products” value is “NAG6 (Fig. 5E) was finally degraded to NAG3 and NAG2”.
